Data from PMC4303209, “A novel phosphatidylinositol 3-kinase (PI3K) inhibitor directs a potent FOXO-dependent, p53-independent cell cycle arrest phenotype characterized by the differential induction of a subset of FOXO-regulated genes” (Breast Cancer Research : BCR, 2014).
Entries after “also recorded” stand apart in the source; their conditions may differ.

What was measured:
[1] = target: panel of 24 representative kinases; assay: Protein kinase panel screen (ProQinase); format: biochemical, human; conditions: 10 μM
Method: (§1) The protein kinase assays depicted in Figure S1 in Additional file 1 and Table S2 in Additional file 2 were performed at ProQinase, GmbH [18].
(§2) Our first objective was to analyse the biological activity of ETP-45658 including the physical and chemical properties of this compound compared to the reference pan-class I PI3K and mTOR inhibitor PI-103 [9]. We characterised the structure of each compound (Figure S1A in Additional file 1) and conducted the in silico analysis of each compound to measure their physiochemical properties (Figure S1B in Additional file 1). We determined the molecular polar surface area (PSA) of each compound, the partition coefficient, the distribution coefficient, compound solubility and the number of hydrogen donors and acceptors. […] Each indicated protein kinase activity was assayed following 10 μM treatment with either compound.
(§3) Supplementary file 13058_2014_482_MOESM1_ESM.jpeg: Additional file 1: Figure S1.: Comparative analysis of ETP-45658 and PI-103. (A) Chemical structure of ETP-45658 and PI-103. (B) Physiochemical properties of ETP-45658 and PI-103, including molecular polar surface area (PSA), partition coefficient (LogP), ACD clogD and solubility at two different pH values including Lipinsky’s Rule of Five (RoF) analysis. […] The kinase activity of PI3K was measured by using the commercial PI3-kinase HTRF™ assay mTOR activity by LanthaScreen™. […]

[2] = system: phosphorylated serine 473 AKT; assay: Immunoblot of AKT Ser473 phosphorylation in MCF-7 or U2OS cells; format: cell-based, human
Method: Figure 1 Cellular response to ETP-45658. […] Seventy-two hours post treatment, MTT assays were conducted. (B) Dose- and time-dependent analysis of Ser473 phosphorylation of AKT phosphorylation by 100nM ETP-45658 or PI-103 treatment. MCF-7 or U2OS cells were treated with the indicated concentrations (μM) of ETP-45658 (or PI-103) for four hours, then total protein was extracted and immunoblotted. For nuclear FOXO analysis, nuclear protein fractions were collected four hours post ETP-45658 (or PI-103) treatment. Nuclear FOXO3a levels were measure by immunoblotting. Nuclear fractions were confirmed by probing for lamin A/C. (C) FACS profile of MCF-7 or U2OS following 100 nM ETP-45658 treatment (20,000 events scored, N = 5). (D) Heat map for the top 100 differentially expressed genes based on hierarchical clustering using Euclidean distance metric. Red and green indicate genes that induced or repressed respectively by ETP-45658 or PI-103. Black indicates no change (N = 4). […] Numbers indicate number of genes that are exclusive to that particular category.

MDA-MB231 cells = assay: Boyden chamber matrigel invasion assay; format: cell-based, human; conditions: 72 hours; for capacity of MDA-MB231 cells to migrate through the matrigel: Figure S1E; for cell viability in invasion assay: MDA-MB231
Method: Cell-invasive capacity was determined using two-compartment Boyden chamber matrigel invasion assay (BD BioCoat™ Matrigel™ Invasion Chambers, BD Biosciences 354480, BD Biosciences, San Jose, CA, USA). MDA-MB231 cells were allowed to invade for 72 hours at 37°C. All of the inserts and the liquid in each well of the companion plate were removed. 10% serum RPMI medium with 5 μM calcein was added to each and incubated for 1 hour (in darkness). Fluorescence was measured with a luminometer (Envision, PerkinElmer, Inc, Waltham, MA, USA) at 485/535 nm and the results were analyzed in Activity Base (IDBS, Guildford, UK).
(§4) Supplementary file 13058_2014_482_MOESM1_ESM.jpeg: Additional file 1: Figure S1.: Comparative analysis of ETP-45658 and PI-103. (A) Chemical structure of ETP-45658 and PI-103. (B) Physiochemical properties of ETP-45658 and PI-103, including molecular polar surface area (PSA), partition coefficient (LogP), ACD clogD and solubility at two different pH values including Lipinsky’s Rule of Five (RoF) analysis. (C) Inhibitory activity against PI3K and mTOR. The kinase activity of PI3K was measured by using the commercial PI3-kinase HTRF™ assay mTOR activity by LanthaScreen™. (D) ETP-45658 and PI-103 screen against a panel of 24 kinases. The value shown indicates kinase inhibition (percentage +/− standard deviation) at 10 μM. (E) Migration of MDA-MB231 cells in a two compartment Boyden chamber for 72 hours in the presence of DMSO, ETP-45658 or PI-103 (N = 3). (JPEG 662 KB)

[3] = system: known toxicity pathways and canonical stress pathways; assay: Ingenuity Pathway Tox Analysis of genome-wide array data; format: cell-based, human; conditions: vs DMSO; MCF-7 array data
Description: While our results highlight that the primary cellular response is an anti-proliferative response (as opposed to an apoptotic response), for the development of ETP-45658 as a potential therapeutic, we questioned if ETP-45658 exposure was associated with any degree of toxicity, one of the most fundamental questions for any proposed therapeutic. We conducted a genome-wide analysis utilising an Ingenuity Pathway Analysis algorithm to address if any known toxicity pathway(s) were activated or induced after treatment with ETP-45658 (or by the reference compound PI-103). This included an extensive evaluation of the cardiac necrosis stress cascade, genes implicated in kidney failure, liver necrosis and liver hematomegaly. Furthermore, we also questioned if, on a genome-wide scale, any know canonical stress pathways were activated by ETP-45658 (or PI-103) treatment. This included the p53 pathway, PTEN aldosterone, ErbB2-ErbB3 and the ERK-MAPK signalling cascades.
Figure 2 Focused toxicity and safety assessment of ETP-45658.

mutated BRAF = assay: Protein kinase panel screen (ProQinase), mutated BRAF; format: biochemical; conditions: 10 μM
Method: as §1, §2, §3

mTOR = mTOR (Homo sapiens, UniProt P42345); assay: mTOR kinase assay (LanthaScreen); format: biochemical; conditions: for inhibitory activity against mTOR: Figure S1C
Method: (§5) The kinase activity of PI3Kα, PI3Kβ, PI3Kδ and PI3Kγ, mutant PI3Kα (H1047R and E542K) mammalian target of rapamycin (mTOR) and DNA-PK was measured as described previously. The protein kinase assays depicted in Figure S1 in Additional file 1 and Table S2 in Additional file 2 were performed at ProQinase, GmbH [18].
as §4

[4] = system: serine 253-phosphorylated FOXO3a; assay: Immunoblot of FOXO3a phosphorylation in MCF-7 or U2OS cells; format: cell-based, human; conditions: breast or osteosarcoma cancer cells; six hours post treatment
PI3K = assay: Kinase assay of PI3Kα, PI3Kβ, PI3Kδ, PI3Kγ and mutant PI3Kα (H1047R and E542K), PI3-kinase HTRF assay; format: biochemical; conditions: Figure S1C
Method: as §5, §4

total p53 = assay: Immunoblot of total p53
Method: Sub-confluent cells were incubated under the conditions indicated in each figure and washed twice with phosphate-buffered saline (PBS) prior to lysis. RIPA lysis buffer was added (50 mM TrisHCl, 150 mM NaCl, 1% NP-40, 2 mM Na3VO4, 100 mM NaF, 20 mM Na4P2O7 and 1x protease inhibitor cocktail (Roche Molecular Biochemicals, Indianapolis, IN, USA). The membranes were incubated overnight for total AKT, phospho-serine-473-AKT, total p53 (DO1) (Santa Cruz Biotechnology, Dallas, TX, USA), phospho-threonine 32-FOXO3a (Merck Millipore, Darmstadt, Germany) and α-tubulin (Sigma-Aldrich). Secondary antibodies used were anti-mouse, goat or rabbit immunoglobulin G (IgG)-horseradish peroxidase (HRP) (Santa Cruz Biotechnology) as appropriate. Visualisation of bands was achieved using ChemiDoc imaging system (BioRad Laboratories Inc, Hercules, CA, USA) after membrane treatment with Ecl + (Amersham, Little Chalfont, UK).

[5] = MCF-7 and U2OS, as early as 30 minutes post treatment
[6] = osteosarcoma cells (U2OS), by three hours post treatment

| SMILES | kinases significantly inhibited in panel of 24 kinases [1] | phosphorylated serine 473 AKT [2, 5] | phosphorylated serine 473 AKT [2, 6] | capacity of MDA-MB231 cells to migrate through the matrigel (MDA-MB231 cells) | cell viability in invasion assay (MDA-MB231 cells) | induction of known toxicity pathways (Ingenuity Pathway Tox Analysis) [3] | average percent inhibition (mutated BRAF) | inhibitory activity against mTOR (mTOR) | serine 253-phosphorylated FOXO3a [4] | inhibitory activity against PI3K (PI3K) | accumulation of total p53 (total p53) | potency against mTOR relative to PI-103 (mTOR; compared to reference compound PI-103) |
| --- | --- | --- | --- | --- | --- | --- | --- | --- | --- | --- | --- | --- |
| Oc1cccc(-c2nc(N3CCOCC3)c3oc4ncccc4c3n2)c1 [PI-103] | only mutated BRAF was significantly inhibited | significant decrease | unable to detect | inhibited | without significantly affecting cell viability | Neither ETP-45658 (nor PI-103) treatment significantly induced any known toxicity pathways | 57.7% | significantly less potent | almost complete absence | slightly more effective | neither ETP-45658 (nor PI-103) triggered an accumulation |  |
| Cn1ncc2c(N3CCOCC3)nc(-c3cccc(O)c3)nc21 [ETP-45658] | only mutated BRAF was significantly inhibited | significant decrease | unable to detect | inhibited | without significantly affecting cell viability | Neither ETP-45658 (nor PI-103) treatment significantly induced any known toxicity pathways | 38% | inhibited | almost complete absence | potently inhibited | little to no p53 accumulation; also recorded: neither ETP-45658 (nor PI-103) triggered an accumulation | almost three times more potent |
